{"source": "paper PMC9781087", "about": "“Discovery of New Microbial Collagenase Inhibitors” (Life, 2022)", "key": {"collagenase A (ColA)": {"molecular_target": "collagenase A (ColA) (Clostridium perfringens, UniProt P43153)", "sequence (P43153 87-1104 limits assumed)": "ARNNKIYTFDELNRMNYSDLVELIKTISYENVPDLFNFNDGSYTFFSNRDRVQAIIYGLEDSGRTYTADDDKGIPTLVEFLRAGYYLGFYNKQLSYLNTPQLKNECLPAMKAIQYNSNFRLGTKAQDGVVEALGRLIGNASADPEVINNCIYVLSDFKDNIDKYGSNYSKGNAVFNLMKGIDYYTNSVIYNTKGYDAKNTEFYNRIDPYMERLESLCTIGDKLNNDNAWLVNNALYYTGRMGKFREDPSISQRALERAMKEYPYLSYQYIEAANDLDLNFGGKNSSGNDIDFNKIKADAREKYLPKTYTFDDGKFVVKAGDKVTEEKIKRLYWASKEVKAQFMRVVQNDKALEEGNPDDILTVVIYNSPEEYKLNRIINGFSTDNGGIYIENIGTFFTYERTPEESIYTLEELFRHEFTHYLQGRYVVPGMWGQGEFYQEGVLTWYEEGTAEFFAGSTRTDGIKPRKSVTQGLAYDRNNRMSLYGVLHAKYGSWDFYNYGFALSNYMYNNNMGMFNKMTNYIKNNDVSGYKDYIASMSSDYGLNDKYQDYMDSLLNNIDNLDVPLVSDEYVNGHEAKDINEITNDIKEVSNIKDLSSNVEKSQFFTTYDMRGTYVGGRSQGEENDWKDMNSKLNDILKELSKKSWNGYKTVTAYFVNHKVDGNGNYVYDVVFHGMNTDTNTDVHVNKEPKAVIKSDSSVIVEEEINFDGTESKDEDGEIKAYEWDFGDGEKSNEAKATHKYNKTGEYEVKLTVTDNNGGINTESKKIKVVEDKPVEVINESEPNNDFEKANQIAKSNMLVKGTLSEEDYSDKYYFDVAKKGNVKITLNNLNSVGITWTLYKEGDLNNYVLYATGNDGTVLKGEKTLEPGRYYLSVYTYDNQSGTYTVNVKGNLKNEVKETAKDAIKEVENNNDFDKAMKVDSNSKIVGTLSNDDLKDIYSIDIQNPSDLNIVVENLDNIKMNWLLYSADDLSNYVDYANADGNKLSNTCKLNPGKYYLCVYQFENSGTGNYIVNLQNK", "assay": "biochemical", "set-up": "species or system C. perfringens", "conditions": "for Inhibition (%) on ColA: after 30 min of incubation"}, "mice": {"tested_on": "mice", "set-up": "method as in PMID 34684834", "conditions": "acute toxicity; cited from earlier work"}, "[1]": {"tested_on": "neuraminidase protein of Clostridium perfringens", "conditions": "cited from earlier work"}, "Solubility": {"assay": "Solubility", "conditions": "in words"}, "[2]": {"tested_on": "rats intratendineously injected with collagenase", "set-up": "method as in PMID 28165813", "conditions": "intragastrical administration, 100 mg/kg; cited from earlier work"}, "[3]": {"tested_on": "Staphylococcus aureus, Enterococcus faecalis, and Staphylococcus epidermidis", "set-up": "method as in PMID 31486108", "conditions": "cited from earlier work"}, "[4]": {"molecular_target": "collagenase from Clostridium histolyticum", "set-up": "method as in PMID 16276971", "conditions": "cited from earlier work"}, "[5]": {"conditions": "read-out: Inhibition (%) on ColA"}, "[6]": {"conditions": "read-out: Inhibition(%) on ColA"}}, "note": "Like-named read-outs stand apart in the source and are kept apart here."}
{"compound": "COc1cc2c(cc1OC)-c1cc3ccc(OC)c(OC)c3c[n+]1CC2", "note": "[Palmatine chloride, palmatine chloride]", "values": [{"measurement": "Inhibition (%) on ColA", "setting": "collagenase A (ColA); 50 µM, mean ± SD of three replications", "result": "Almost complete inhibition"}, {"measurement": "inhibition at 1 µM", "setting": "collagenase A (ColA); [5]", "result": "15.5 ± 3.9", "unit": "%"}, {"measurement": "inhibition at 5 µM", "setting": "collagenase A (ColA); [5]", "result": "35.4 ± 1.8", "unit": "%"}, {"measurement": "inhibition at 10 µM", "setting": "collagenase A (ColA); [5]", "result": "84.9 ± 1.5", "unit": "%"}, {"measurement": "inhibition at 50 µM", "setting": "collagenase A (ColA); [5]", "result": "97.9 ± 1.6", "unit": "%"}, {"measurement": "inhibition at 100 µM", "setting": "collagenase A (ColA); [5]", "result": "98.7 ± 0.4", "unit": "%"}, {"measurement": "inhibition at 100 µM", "setting": "collagenase A (ColA); [6]", "result": 103, "unit": "%"}, {"measurement": "lethal dose 50", "setting": "mice", "result": 1533.68, "unit": "mg/kg"}, {"measurement": "neuraminidase inhibition (in words)", "setting": "[1]", "result": "potent effect"}]}
{"compound": "O=C1c2ccc(O)cc2OC(c2cc(O)c(O)c(O)c2)C1O", "note": "(centres unmarked) [Dihydrorobinetin, dihydrorobinetin]", "values": [{"measurement": "Inhibition (%) on ColA", "setting": "collagenase A (ColA); 10 µM, mean ± SD of three replications", "result": "Almost complete inhibition"}, {"measurement": "inhibition at 1 µM", "setting": "collagenase A (ColA); [5]", "result": "-16.5 ± 1.6", "unit": "%"}, {"measurement": "inhibition at 5 µM", "setting": "collagenase A (ColA); [5]", "result": "-29.7 ± 0.5", "unit": "%"}, {"measurement": "inhibition at 10 µM", "setting": "collagenase A (ColA); [5]", "result": "105.1 ± 0.5", "unit": "%"}, {"measurement": "inhibition at 100 µM", "setting": "collagenase A (ColA); [6]", "result": 96.9, "unit": "%"}, {"measurement": "solubility", "setting": "Solubility", "result": "poor solubility in water"}]}
{"compound": "O=C(/C=C/C=C/c1ccc2c(c1)OCO2)N1CCCCC1", "note": "[Piperine, piperine]", "values": [{"measurement": "IC50 (in words)", "setting": "collagenase A (ColA)", "result": "nanomolar range"}, {"measurement": "inhibitory effect on ColA (in words)", "setting": "collagenase A (ColA)", "result": "potent inhibitory effects on ColA, even at small concentration"}, {"measurement": "inhibition at 1 µM", "setting": "collagenase A (ColA); [5]", "result": "84.5 ± 0.4", "unit": "%"}, {"measurement": "inhibition at 5 µM", "setting": "collagenase A (ColA); [5]", "result": "82.4 ± 0.4", "unit": "%"}, {"measurement": "inhibition at 10 µM", "setting": "collagenase A (ColA); [5]", "result": "72.5 ± 2.7", "unit": "%"}, {"measurement": "inhibition at 100 µM", "setting": "collagenase A (ColA); [6]", "result": 81.1, "unit": "%"}, {"measurement": "morphological structure of rats' tendons", "setting": "[2]", "result": "improvement of the morphological structure"}, {"measurement": "solubility", "setting": "Solubility", "result": "low solubility"}]}
{"compound": "O=C1C=CC(=O)c2c(O)cccc21", "note": "[Juglone, juglone]", "values": [{"measurement": "inhibitory effect on ColA (in words)", "setting": "collagenase A (ColA)", "result": "potent inhibitors of ColA"}, {"measurement": "Inhibition (%) on ColA", "setting": "collagenase A (ColA); 100 µM, mean ± SD of three replications (five-dose assay)", "result": "Almost complete inhibition"}, {"measurement": "inhibition at 1 µM", "setting": "collagenase A (ColA); [5]", "result": "13.8 ± 1.5", "unit": "%"}, {"measurement": "inhibition at 5 µM", "setting": "collagenase A (ColA); [5]", "result": "50.6 ± 0.5", "unit": "%"}, {"measurement": "inhibition at 10 µM", "setting": "collagenase A (ColA); [5]", "result": "69.2 ± 0.4", "unit": "%"}, {"measurement": "inhibition at 50 µM", "setting": "collagenase A (ColA); [5]", "result": "80.8 ± 0.7", "unit": "%"}, {"measurement": "impact on the bacterial growth", "setting": "[3]", "result": "low impact on the bacterial growth"}]}
{"compound": "O=C(/C=C/c1ccc(O)c(O)c1)O[C@@H]1C[C@](O)(C(=O)O)C[C@@H](O)[C@H]1O", "note": "[chlorogenic acid]", "values": [{"measurement": "inhibition at 100 µM", "setting": "collagenase A (ColA); [6]", "result": 4.8, "unit": "%"}]}
{"compound": "O=c1ccc2cc(O)c(O)cc2o1", "note": "[esculetin]", "values": [{"measurement": "inhibitory effect on ColA (in words)", "setting": "collagenase A (ColA)", "result": "low effects"}, {"measurement": "inhibition at 100 µM", "setting": "collagenase A (ColA); [6]", "result": 11.8, "unit": "%"}]}
{"compound": "O=c1c(O)c(-c2ccc(O)c(O)c2)oc2cc(O)cc(O)c12", "note": "[quercetin]", "values": [{"measurement": "IC50", "setting": "[4]", "result": 286, "unit": "µM"}]}
{"compound": "O=C(O)C1=C[C@@H](O)[C@@H](O)[C@H](O)C1", "note": "[shikimic acid]", "values": [{"measurement": "inhibition at 100 µM", "setting": "collagenase A (ColA); [6]", "result": -0.2, "unit": "%"}]}
{"compound": "NS(=O)(=O)c1cc2c(cc1C(F)(F)F)NC(Cc1ccccc1)NS2(=O)=O", "note": "(centres unmarked) [bendroflumethiazide, reference compound]", "values": [{"measurement": "inhibition at 100 µM", "setting": "collagenase A (ColA); [6]", "result": 21.6, "unit": "%"}]}
{"compound": "Oc1cc(O)c2c(c1)O[C@H](c1ccc(O)c(O)c1)[C@H](O)C2", "note": "[epicatechin]", "values": [{"measurement": "inhibition at 100 µM", "setting": "collagenase A (ColA); [6]", "result": 3.6, "unit": "%"}]}
{"compound": "C[C@@H]1O[C@@H](OC[C@H]2O[C@@H](Oc3c(-c4ccc(OCCO)c(OCCO)c4)oc4cc(OCCO)cc(O)c4c3=O)[C@H](O)[C@@H](O)[C@@H]2O)[C@H](O)[C@H](O)[C@H]1O", "note": "[trihydroxyethylrutin, reference compound]", "values": [{"measurement": "Inhibition (%) on ColA", "setting": "collagenase A (ColA); 100 µM, preliminary screening (Table S1), * = compound precipitated due to low solubility", "result": 1.3, "unit": "%"}]}
{"compound": "NC(=O)NCCC[C@H](N)C(=O)O", "note": "[Citrulline, citrulline]", "values": [{"measurement": "inhibition at 1 µM", "setting": "collagenase A (ColA); [5]", "result": "-4.3 ± 3.5", "unit": "%"}, {"measurement": "inhibition at 5 µM", "setting": "collagenase A (ColA); [5]", "result": "-14.1 ± 1.4", "unit": "%"}, {"measurement": "inhibition at 10 µM", "setting": "collagenase A (ColA); [5]", "result": "27.8 ± 3", "unit": "%"}, {"measurement": "inhibition at 50 µM", "setting": "collagenase A (ColA); [5]", "result": "24.3 ± 1.7", "unit": "%"}, {"measurement": "inhibition at 100 µM", "setting": "collagenase A (ColA); [5]", "result": "7.2 ± 0.5", "unit": "%"}, {"measurement": "inhibition at 100 µM", "setting": "collagenase A (ColA); [6]", "result": 6.8, "unit": "%"}]}
{"compound": "O=c1c(-c2ccc(O)cc2)coc2cc(O)cc(O)c12", "note": "[genistein]", "values": [{"measurement": "inhibition at 100 µM", "setting": "collagenase A (ColA); [6]", "result": -1.1, "unit": "%"}]}
{"compound": "CC(=O)c1c(O)c(C)c(O)c2c1OC1=CC(=O)C(C(C)=O)C(=O)C12C", "note": "(centres unmarked) [usnic acid]", "values": [{"measurement": "inhibition at 100 µM", "setting": "collagenase A (ColA); [6]", "result": 3.9, "unit": "%"}]}
{"compound": "O=C(O)C1NCCc2c1[nH]c1ccccc21", "note": "(stereo not drawn) [1,2,3,4-tetrahydro-beta-carboline-1-carboxylic acid]", "values": [{"measurement": "inhibition at 100 µM", "setting": "collagenase A (ColA); [6]", "result": 1.5, "unit": "%"}]}
{"compound": "myricitrin", "values": [{"measurement": "inhibitory effect on ColA (in words)", "setting": "collagenase A (ColA)", "result": "low inhibitory effect"}]}
{"compound": "CC1=CC(=O)c2c(O)cccc2C1=O", "note": "[plumbagin]", "values": [{"measurement": "inhibition at 100 µM", "setting": "collagenase A (ColA); [6]", "result": -7.7, "unit": "%"}]}
{"compound": "COc1cc([C@@H]2c3cc4c(cc3[C@H](O)[C@H]3COC(=O)[C@H]23)OCO4)cc(OC)c1OC", "note": "[podophyllotoxin, reference compound]", "values": [{"measurement": "inhibition at 100 µM", "setting": "collagenase A (ColA); [6]", "result": -9.7, "unit": "%"}]}
